pIC50: −log10 of the molar value.
Biological target: hTRPA1 (Homo sapiens (Human), UniProt O75762)
Test: Dose response calcium flux assay (FLIPR), ChanTest hTRPA1-CHO stably transfected cell line
Format: cell-based
Conditions: CHO-K1 Tet-On human TRPA1 cells, cinnamaldehyde agonist (final 100 uM)
Description: IC50 Determinations of Exemplified Compounds Dose Response Assay: Chan Test hTRPA1-CHO Stably Transfected Cell Line
CHO-K1 Tet-On_HOMSA_TRPA1_Clone_20
Chinese Hamster Ovary cells, inducible expression
• Ham's F-12 with 10% tetracycline-free FBS • 1× penicillin-streptomycin • 1× glutamax • 0.01 mg/ml Blasticidin • 0.40 mg/ml Zeocin • The cell line doubling rate was ˜15 hours. […] Experiments were run at 24 hours post induction. Plating Conditions CHOK1/TRPA1 Cells: • Harvested cells with 0.025% trypsin/EDTA. • Resuspended cells in growth media without selection antibiotics. • Measured cell density and diluted to 2.4×10^5 cells/ml in media containing 1 ug/ml Doxycycline Plate 25 ul/well into 384 well black/clear tissue culture-treated plates. • Incubated overnight at 37° C. Calcium Flux Assay: Day of Assay: Reagents: • Replacement Buffer: Hank's Balanced Salt Solution, 20 mM HEPES along with 0.005% BSA and 2× Probenecid • Dye Loading Buffer: Cal-3 NW Calcium dye was prepared by dissolving the contents of one vial with […] Hank's Balanced Salt Solution containing 20 mM HEPES. • Control compounds for CHOK1/TRPA1 cells: AP-18, stock 10 mM, prepare 3.5× compound dilution in a Compound Buffer (HBSS/20 mM HEPES/0.005% BSA)—final concentration 10 uM. • Preparation of Cinnamaldehyde (agonist addition): FW=132.16 • Specific gravity=1.046 gm/cc • 1.32 gm/1.046 gm/cc=1.26 ml of stock • Add 1.74 ml DMSO=3.3 M stock • Working solution 4.5× (final 100 uM in Compound Buffer: HBSS/20 mM HEPES/0.005% BSA) • Compounds dilutions were prepared from 5 or 10 mM stock (100% DMSO): • Adjustments of volumes and concentrations were made at time of titration to reflect desired final assay concentrations. • Compounds were tested at either 20 μM three folds dilution 11 steps out or 30 μM two folds dilution 11 steps out. • 3 μl of diluted compound were transferred into Weidmann 384-well plate in duplicates side-by-side. • Compound plates were resuspended with 100 ul of HBSS/20 mM HEPES/0.005% BSA buffer (Compound Buffer): • column 1A-H: buffer/DMSO (bk) • column 2A-H: AP-18 (control antagonist for CHOK1 TRPA1 cells) • column 1I-P: ATP (control for CHOK1 teton cells) • column 2 I-P: 2APB (control antagonist for CHOK1/TRPM8 cells). Growth media was removed from the cell plates (20 ul) and 20 ul of the Replacement Buffer was added followed by addition of 25 ul of diluted dye. All three steps were performed using a Plate Washer BioTek 407. The plates were then incubated for 30′ at RT.
After incubation, both the cell and compound plates were brought to the FLIPR and 20 ul of the diluted compounds/antagonist/bk were transferred to the cell plates by the FLIPR. Plates were then incubated for 30′ at room temperature. After 30′ incubation, plates were returned to the FLIPR and 20 ul of 4.5× Cinnamaldehyde was added to the cell plates. During the compound addition as well as agonist addition, fluorescence readings were taken simultaneously from all 384 wells of the cell plate every 1.5 seconds. Five readings were taken to establish a stable baseline, then 20 ul of sample was rapidly (30 ul/sec) and simultaneously added to each well of the cell plate. The fluorescence was continuously monitored before, during and after sample/agonist addition for a total elapsed time of 100 seconds (compound addition) and 120 seconds (agonist addition). Responses (increase in peak fluorescence) in each well following agonist addition was determined. The initial fluorescence reading from each well, prior to ligand stimulation, was used a zero baseline value for the data from that well.

Sequence of hTRPA1 (O75762 whole entry): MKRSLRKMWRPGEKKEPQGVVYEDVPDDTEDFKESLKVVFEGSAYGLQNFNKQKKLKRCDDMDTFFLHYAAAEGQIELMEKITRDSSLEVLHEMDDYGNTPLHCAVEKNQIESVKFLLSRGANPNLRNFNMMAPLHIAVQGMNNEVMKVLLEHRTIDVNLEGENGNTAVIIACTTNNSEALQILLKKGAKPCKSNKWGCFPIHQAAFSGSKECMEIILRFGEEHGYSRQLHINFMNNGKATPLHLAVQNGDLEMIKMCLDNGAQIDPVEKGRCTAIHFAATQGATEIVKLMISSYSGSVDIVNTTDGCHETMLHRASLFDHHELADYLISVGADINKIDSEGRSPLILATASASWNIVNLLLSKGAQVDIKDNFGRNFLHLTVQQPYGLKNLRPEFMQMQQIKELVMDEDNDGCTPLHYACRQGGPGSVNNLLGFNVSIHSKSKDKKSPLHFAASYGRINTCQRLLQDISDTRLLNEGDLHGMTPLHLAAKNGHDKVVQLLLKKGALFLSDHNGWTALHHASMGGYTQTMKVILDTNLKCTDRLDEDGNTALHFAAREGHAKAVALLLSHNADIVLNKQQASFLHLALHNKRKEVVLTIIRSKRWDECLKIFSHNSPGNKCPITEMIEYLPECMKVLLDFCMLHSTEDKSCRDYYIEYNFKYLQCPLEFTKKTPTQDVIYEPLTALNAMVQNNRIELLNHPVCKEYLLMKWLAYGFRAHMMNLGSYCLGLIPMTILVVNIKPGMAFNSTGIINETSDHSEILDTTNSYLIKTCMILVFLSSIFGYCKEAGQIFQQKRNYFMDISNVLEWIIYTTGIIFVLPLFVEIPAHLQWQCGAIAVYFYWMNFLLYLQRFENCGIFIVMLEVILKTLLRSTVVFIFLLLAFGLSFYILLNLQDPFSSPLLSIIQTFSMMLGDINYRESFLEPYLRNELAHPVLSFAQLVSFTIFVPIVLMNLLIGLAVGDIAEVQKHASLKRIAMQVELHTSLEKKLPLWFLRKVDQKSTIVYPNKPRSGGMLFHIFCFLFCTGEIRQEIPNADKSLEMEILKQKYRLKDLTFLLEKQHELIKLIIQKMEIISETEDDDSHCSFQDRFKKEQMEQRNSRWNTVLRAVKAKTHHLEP

| Compound | pIC50 |
| --- | --- |
| CN(CC(=O)NCc1cc(-c2ccc(C(F)(F)F)cc2)ncn1)S(=O)(=O)c1cccs1 [Example 26, 2-[methyl-(thiophene-2-sulfonyl)-amino]-N-[6-(4-trifluoromethyl-phenyl)-pyrimidin-4-ylmethyl]-acetamide] | 6.47 |
| COCCN(CC(=O)NCc1cc(-c2ccc(C(F)(F)F)cc2)ncn1)S(=O)(=O)c1ccc(F)cc1 [Example 29, 2-[(4-Fluoro-benzenesulfonyl)-(2-methoxy-ethyl)-amino]-N-[6-(4-trifluoromethyl-phenyl)-pyrimidin-4-ylmethyl]-acetamide] | 6.33 |
| O=C(CN(CCO)S(=O)(=O)c1ccc(F)cc1)NCc1cc(-c2ccc(C(F)(F)F)cc2)ncn1 [Example 30, 2-[(4-fluoro-benzenesulfonyl)-(2-hydroxy-ethyl)-amino]-N-[6-(4-trifluoromethyl-phenyl)-pyrimidin-4-ylmethyl]acetamide] | 6.66 |
| CC(C)(C)N(CC(=O)NCc1cc(-c2ccc(C(F)(F)F)cc2)ncn1)S(=O)(=O)c1ccc(F)cc1 [Example 31, 2-[tert-Butyl-(4-fluoro-benzenesulfonyl)-amino]-N-[6-(4-trifluoromethyl-phenyl)-pyrimidin-4-ylmethyl]-acetamide] | 6.42 |
| CC(C)N([C@@H](C)C(=O)NCc1cc(-c2ccc(C(F)(F)F)cc2)ncn1)S(=O)(=O)c1ccc(F)cc1 [Example 32, (S)-2-[(4-Fluoro-benzenesulfonyl)-isopropyl-amino]-N-[6-(4-trifluoromethyl-phenyl)-pyrimidin-4-ylmethyl]-propionamide] | 6.72 |
| CC(C)N(CC(=O)NCc1ccc(-c2ccc(C(F)(F)F)cc2)cc1)S(=O)(=O)c1ccc(F)cc1 [Example 33, 2-[(4-Fluoro-benzenesulfonyl)-isopropyl-amino]-N-(4′-trifluoromethyl-biphenyl-4-ylmethyl)-acetamide] | 5.66 |
| CC(C)N(CC(=O)NCc1ccc(-c2cccc(C(F)(F)F)c2)cc1)S(=O)(=O)c1ccc(F)cc1 [Example 34, 2-[(4-Fluoro-benzenesulfonyl)-isopropyl-amino]-N-(3′-trifluoromethyl-biphenyl-4-ylmethyl)-acetamide] | 5.44 |
| CN(CC(=O)NCc1cccc(-c2ccc(C(F)(F)F)cn2)c1)S(=O)(=O)c1ccc(F)cc1 [Example 41, 2-[(4-Fluoro-benzenesulfonyl)-methyl-amino]-N-[3-(5-trifluoromethyl-pyridin-2-yl)-benzyl]-acetamide] | 6.54 |
| CCN(CC(=O)NCc1cccc(-c2ccc(C(F)(F)F)cn2)c1)S(=O)(=O)c1ccc(F)cc1 [Example 42, 2-[Ethyl-(4-fluoro-benzenesulfonyl)-amino]-N-[3-(5-trifluoromethyl-pyridin-2-yl)-benzyl]-acetamide] | 7.08 |
| COc1cc(CNC(=O)CN(C)S(=O)(=O)c2ccc(F)cc2)cc(-c2ccc(C(F)(F)F)cc2)c1 [Example 43, 2-[(4-Fluoro-benzenesulfonyl)-methyl-amino]-N-(5-methoxy-4′-trifluoromethyl-biphenyl-3-ylmethyl)-acetamide] | 6.42 |
| CCN(CC(=O)NCc1cc(OC)cc(-c2ccc(C(F)(F)F)cc2)c1)S(=O)(=O)c1ccc(F)cc1 [Example 44, 2-[Ethyl-(4-fluoro-benzenesulfonyl)-amino]-N-(5-methoxy-4′-trifluoromethyl-biphenyl-3-ylmethyl)-acetamide] | 7.06 |
| CCN(CC(=O)NCc1ccc(OC)c(-c2ccc(C(F)(F)F)cc2)c1)S(=O)(=O)c1ccc(F)cc1 [Example 46, 2-[Ethyl-(4-fluoro-benzenesulfonyl)-amino]-N-(6-methoxy-4′-trifluoromethyl-biphenyl-3-ylmethyl)-acetamide] | 6.89 |
| CC(C)N(CC(=O)NCc1cc(-c2ccc(C(F)(F)F)cc2)ncn1)S(=O)(=O)c1cccc(F)c1 [Example 49, 2-[(3-Fluoro-benzenesulfonyl)-isopropyl-amino]-N-[6-(4-trifluoromethyl-phenyl)-pyrimidin-4-ylmethyl]-acetamide] | 7.15 |

The next compounds have a higher pIC50 than those just listed; values first:

| pIC50 | Compound |
| --- | --- |
| 7.17 | CC(C)N(CC(=O)NCc1cccc(-c2ccc(C(F)(F)F)cn2)c1)S(=O)(=O)c1ccc(F)cc1 [Example 40, 2-[(4-Fluoro-benzenesulfonyl)-isopropyl-amino]-N-[3-(5-trifluoromethyl-pyridin-2-yl)-benzyl]-acetamide] |
| 7.19 | C[C@H](C(=O)NCc1cc(-c2ccc(C(F)(F)F)cc2)ncn1)N(C)S(=O)(=O)c1ccc(F)cc1 [Example 38, (R)-2-[(4-Fluoro-benzenesulfonyl)-methyl-amino]-N-[6-(4-trifluoromethyl-phenyl)-pyrimidin-4-ylmethyl]-propionamide] |
| 7.27 | CC(C)N(CC(=O)NCc1ccc(F)c(-c2ccc(C(F)(F)F)cc2)c1)S(=O)(=O)c1ccc(F)cc1 [Example 35, 2-[(4-Fluoro-benzenesulfonyl)-isopropyl-amino]-N-(6-fluoro-4′-trifluoromethyl-biphenyl-3-ylmethyl)-acetamide] |
| 7.28 | CC(C)N(CC(=O)NCc1cc(-c2ccc(C(F)(F)F)cc2)ncn1)S(=O)(=O)c1ccc(F)cc1 [Example 27, 2-[(4-Fluoro-benzenesulfonyl)-isopropyl-amino]-N-[6-(4-trifluoromethyl-phenyl)-pyrimidin-4-ylmethyl]-acetamide] |
| 7.29 | CC(C)N(CC(=O)NCc1cccc(-c2ccc(C(F)(F)F)cc2)c1)S(=O)(=O)c1ccc(F)cc1 [Example 39, 2-[(4-Fluoro-benzenesulfonyl)-isopropyl-amino]-N-(4′-trifluoromethyl-biphenyl-3-ylmethyl)-acetamide] |
| 7.32 | COc1cc(CNC(=O)CN(C(C)C)S(=O)(=O)c2ccc(F)cc2)cc(-c2ccc(C(F)(F)F)cc2)c1 [Example 45, 2-[(4-Fluoro-benzenesulfonyl)-isopropyl-amino]-N-(5-methoxy-4′-trifluoromethyl-biphenyl-3-ylmethyl)-acetamide] |
| 7.38 | CN(CC(=O)NCc1cc(-c2ccc(C(F)(F)F)cc2)ncn1)S(=O)(=O)c1ccc(Cl)s1 [Example 25, 2-[(5-chloro-thiophene-2-sulfonyl)-methyl-amino]-N-[6-(4-trifluoromethyl-phenyl)-pyrimidin-4-ylmethyl]-acetamide] |
| 7.39 | COc1ccc(CNC(=O)CN(C(C)C)S(=O)(=O)c2ccc(F)cc2)cc1-c1ccc(C(F)(F)F)cc1 [Example 47, 2-[(4-Fluoro-benzenesulfonyl)-isopropyl-amino]-N-(6-methoxy-4′-trifluoromethyl-biphenyl-3-ylmethyl)-acetamide] |
| 7.47 | CC(C)N(CC(=O)NCc1cccc(-c2ccc(C(F)(F)F)cc2)c1)S(=O)(=O)c1cccc(F)c1 [Example 48, 2-[(3-Fluoro-benzenesulfonyl)-isopropyl-amino]-N-(4′-trifluoromethyl-biphenyl-3-ylmethyl)-acetamide] |
| 7.48 | CCN(CC(=O)NCc1cc(-c2ccc(C(F)(F)F)cc2)ncn1)S(=O)(=O)c1ccc(F)cc1 [Example 28, 2-[Ethyl-(4-fluoro-benzenesulfonyl)-amino]-N-[6-(4-trifluoromethyl-phenyl)-pyrimidin-4-ylmethyl]-acetamide] |
| 7.85 | CC(C)N(CC(=O)NCc1cc(-c2ccc(C(F)(F)F)cc2)ccc1F)S(=O)(=O)c1ccc(F)cc1 [Example 37, 2-[(4-Fluoro-benzenesulfonyl)-isopropyl-amino]-N-(4-fluoro-4′-trifluoromethyl-biphenyl-3-ylmethyl)-acetamide] |
| 7.92 | CC(C)N(CC(=O)NCc1cc(F)cc(-c2ccc(C(F)(F)F)cc2)c1)S(=O)(=O)c1ccc(F)cc1 [Example 36, 2-[(4-Fluoro-benzenesulfonyl)-isopropyl-amino]-N-(5-fluoro-4′-trifluoromethyl-biphenyl-3-ylmethyl)-acetamide] |

— patent publication US9580411B2, “Substituted sulfonamide compounds” (Hoffmann-La Roche Inc., priority 2012, dated 2017)
